Numbers after ± are expanded uncertainties.
Assays:
[1] = 101.33 kPa, Liquid, Vibrating tube method
[2] = refractive index (Na D-line) (dimensionless); settings: 298.15 K; 101.33 kPa; Liquid; Pulfrich refractometry

C1CCOC1 [tetrahydrofuran]
mass density ([1]; 278.15 K): 903.68 ± 0.12 kg/m3
mass density ([1]; 283.15 K): 898.309 ± 0.12 kg/m3
mass density ([1]; 288.15 K): 892.903 ± 0.12 kg/m3
mass density ([1]; 293.15 K): 887.471 ± 0.12 kg/m3
mass density ([1]; 298.15 K): 882.005 ± 0.13 kg/m3
mass density ([1]; 303.15 K): 876.513 ± 0.13 kg/m3
mass density ([1]; 308.15 K): 870.981 ± 0.13 kg/m3
mass density ([1]; 313.15 K): 865.414 ± 0.13 kg/m3
mass density ([1]; 318.15 K): 859.81 ± 0.13 kg/m3
refractive index [2]: 1.4048 ± 0.00012
